Laboratory results reported in patent US20200289482A1, “CYSTIC FIBROSIS TRANSMEMBRANE CONDUCTANCE REGULATOR MODULATORS FOR TREATING AUTOSOMAL DOMINANT POLYCYSTIC KIDNEY DISEASE” (The Johns Hopkins University, priority 2017, published 2020).

Columns and labels:
Hsp90 = test: Western blot of Hsp90 in PN cells; format: cell-based, mouse; conditions: VX-809 10 μM 16 h
Description: FIG. 8A, FIG. 8B, FIG. 8C, FIG. 8D, FIG. 8E, FIG. 8F, FIG. 8G, and FIG. 8H show chaperone expression is altered in PH and PN cells by VX-809. (FIG. 8A) Western blot showing expression of HSP27, 70 and HSP 90 in VX-809 treated or control PN cells. […] (FIG. 8E). Western blot of HSP27, 70 and 90 in PH vs. PN cells. […] Whereas, Hsp70 is higher in PH vs. PN cells. Data were analyzed by non-parametric t test. Experiment was repeated 4-5 times. Cells were grown in 10-cm culture dishes at permissive conditions (33° C.) with γ-interferon in culture media. Cells were then transferred to non-permissive conditions at 37° C., γ-interferon free culture media and evaluated at full confluence. At day four, cells were treated with VX-809 (10 μM) for 16 h and harvested on fifth day for assay. *P<0.05., **P<0.01, ***P<0.001, ****P<0.0001; To facilitate their growth in the kidney, cysts have developed an altered network of proteins that most likely serves to protect them from stress (34). Next, it was determined whether VX-809 would alter the levels of Hsps in pkd−/− mice and in PN cells. […] Hsp 27, 70 and 90 are all elevated in cystic kidneys compared to normal controls. […] There is no change in Hsp 40. […] Both sets of data are consistent with an alteration in the heat shock response to cyst growth.

PN cells = test: BrdU cell proliferation assay; format: cell-based, mouse; conditions: 1 and 10 μM vs DMSO-treated cells
Description: FIG. 3A, FIG. 3B, FIG. 3C, and FIG. 3D show cell proliferation is reduced by VX-809. (FIG. 3A-FIG. 3B) Proliferation in kidneys of Pkd1^fl/fl; Pax8^rtTA; TetO-cre mice. Representative images of Ki67 (a cellular marker for proliferation) staining of PN21 kidney sections from DMSO- and VX-809-treated mice. Arrows indicate Ki67-positive cells. Pictures were acquired with a Zeiss microscope equipped with 20× objective. (FIG. 3C) Summary data for Ki67-positive cells. Columns represent averages±standard errors of DMSO (vehicle)-treated (n=3) and VX-809-treated (n=3) mice. Statistical analysis was performed using a two-tailed Student's t test. (FIG. 3D) Proliferation in PN cells. PN cells were treated with VX-809 or DMSO). The bromodeoxyuridine (BrdU) concentration in the cells was measured by using a BrdU cell proliferation assay kit (Millipore Sigma #2750) according to the manufacturer's protocol. Columns represent averages±SEs of the OD of BrdU at 450/550 […]. Data were analyzed using Student's t-test, with n=5-7. Methods were described previously (62). […]; **P<0.01;
A hallmark of the cysts in ADPKD is an increase in proliferation in response to cAMP (23). Therefore, it was determined whether VX-809 would affect proliferation.

AC3 = test: Western blot of adenylyl cyclase 3 expression; format: cell-based, mouse; conditions: PN cells treated with VX-809
Description: FIG. 4A, FIG. 4B, FIG. 4C, FIG. 4D, and FIG. 4E show (FIG. 4A-FIG. 4B) cAMP levels are reduced by VX-809. (FIG. 4A) cAMP levels in mouse tissue were reduced by VX-809. The kidney samples (n=6) analyzed were taken from those depicted in FIG. 1. (FIG. 4B) Confluent PN and PH cells were treated with VX-809 (10 μM) or DMSO for 16 h and then treated with forskolin (100 μM) for 30 min before the cells were harvested for the assay. Columns represent means±SEM. Statistical analysis was performed using a two-tailed Student's t-test. Each set of data is from three individual wells; Note that resting cAMP is greater in PN vs PH cells as previously shown (25). Also note that forskolin caused a large increase in cAMP. A smaller increase occurred with IBMX. However, the increase induced by forskolin alone was similar to that by IBMX plus forskolin. […] (FIG. 4C, FIG. 4D, and FIG. 4E) Adenylyl cyclase expression. (FIG. 4C) Western blot showing the expression of adenylyl cyclase (AC) 6 and AC3 in treated and control PN cells. (FIG. 4D-FIG. 4E) Columns represent means±SEM of the AC3 and AC6 expression. The data were analyzed by non-parametric t-test. The experiment was repeated four times. For all graphs, *P<0.05, **P<0.01, and ***P<0.001;
There are two classes of adenylyl cyclases that are regulated by intracellular Ca^2+: one class is activated, and the other inhibited. […]

Hsp70 = test: Western blot of Hsp70 in kidney tissue lysates; format: in vivo, mouse; conditions: cyst induced pkd−/− mice, VX-809 30 mg/kg BW
Description: FIG. 7A, FIG. 7B, FIG. 7C, FIG. 7D, FIG. 7E, and FIG. 7F show chaperone expression is altered in mice by VX-809. (FIG. 7A-FIG. 7B) Representative Western blot images of HSP27, 70, 90 and HSP40 in lysates of kidney tissue from no cyst induced (ND), cyst induced with Doxycycline (D) or cyst induced pkd−/− mice treated with VX-809 (D+VX-809) 30 mg/kg BW. (FIG. 7C, FIG. 7D, FIG. 7E, and FIG. 7F) Columns represent averages±standard errors of HSP27, 70, 90 and HSP40 expression. Data were analyzed by non-parametric t-test. n=4 for each treated and control groups. Black lines between lanes represent representative experiments from the same gel. *P<0.05; **P<0.01; To facilitate their growth in the kidney, cysts have developed an altered network of proteins that most likely serves to protect them from stress (34). Next, it was determined whether VX-809 would alter the levels of Hsps in pkd−/− mice and in PN cells. […] Hsp 27, 70 and 90 are all elevated in cystic kidneys compared to normal controls. […] There is no change in Hsp 40. […] Both sets of data are consistent with an alteration in the heat shock response to cyst growth.

## lumacaftor [VX-809]
Hsp90
  Hsp90 expression in PN cells: reduced expression
PN cells
  cell proliferation (BrdU): significantly inhibit cell proliferation
AC3
  AC3 levels: decreased
Hsp70
  Hsp70 expression in kidneys: significantly less expression
